# System: ApoB mRNA level in the liver
# Assay: Liver ApoB mRNA knockdown by 1:57 SNALP with ApoB siRNA in mice (QuantiGene assay, normalized to GAPDH mRNA)
# Format: in vivo, female BALB/c mice
# Conditions: IV bolus 0.05 mg/kg siRNA, mouse liver 48 h after dosing, compared to SNALP containing the C2K benchmark cationic lipid
# Description: In particular, the objective of this study was to assess the ApoB dose response gene silencing activity in the mouse liver of 1:57 SNALP containing various novel trialkyl cationic lipids of Formula I. The ApoB siRNA sequence used in this study is provided in Table 1.
# Just prior to the first treatment, animals were weighed and dose amounts were calculated based on the weight of individual animals (equivalent to 10 mL/kg, rounded to the nearest 10 μL). The test article was administered by IV injection through the tail vein once on Day 0 (1 dose total per animal).
# Animals were sacrificed on Day 2, 48 h after test article administration. […] A brief necropsy was performed and observations recorded. […]
# Body weight was reported for individual animals in addition to group mean and standard deviation of the group mean. Data were expressed in terms of the measured unit (grams) and the group mean difference from PBS vehicle control treatment was calculated for this expression (include SD). For body weights, individual animal data were also expressed as % of pre-treatment value and the group means were expressed as % change from pre-treatment value (include SD). […] Drug activity was measured using a QuantiGene assay for ApoB mRNA level in the liver (normalized to GAPDH mRNA level). […] Data were expressed in terms of the measured unit as well as difference from PBS vehicle control treatment. […]
compound,measurement,value
"CCCCC/C=C\C/C=C\CCCCCCCCC(OC(=O)CCCCN(C)C)C(O)(CCCCCCCC/C=C\C/C=C\CCCCC)CCCCCCCC/C=C\C/C=C\CCCCC (stereo not shown) [Compound 13-B4, (6Z,9Z,29Z,32Z)-20-hydroxy-20-((9Z,12Z)-octadeca-9,12-dienyl)octatriaconta-6,9,29,32-tetraen-19-yl 5-(dimethylamino)pentanoate]",liver ApoB mRNA knockdown activity (ApoB silencing activity),unexpectedly improved ApoB silencing activity

# Reference: patent US8466122B2, “Trialkyl cationic lipids and methods of use thereof” (Protiva Biotherapeutics, Inc., priority 2010, dated 2013)
